The test system of data set [1] is adult whitefly. Nature of the data set: Tube test assay: repelling effect on adult whitefly, treated leaf disks (Examples 1-3). Format: in vivo. Here is the method:
For the purpose of the study, a tube test assay was performed using solutions of anatabine and DEET prepared according to Table 1.
For the purpose of the study, leaf disks were dipped for a total time of 30 seconds into the prepared solutions and left to dry for 10 minutes at room temperature. Subsequently, the leaf disks were deposited at the bottom of glass tubes and a minimum of 20 adult whiteflies were introduced into the tubes. […] The repelling effect of both anatabine and DEET is shown in Table 2 and was calculated by counting the number of whitefly landing on a leaf compared to the placebo control, using the Abbott's formula: […]
The placebo control defines the baseline, against which the repelling effect is then calculated according to the formula above.
For the purpose of the study, a tube test assay was performed using solutions of anatabine at three different concentrations prepared according to Table 3.
The placebo control defines the baseline, against which the repelling effect is then calculated.
For the purpose of the study, leaf disks were dipped for a total time of 30 seconds into the prepared solutions and left to dry for 10 minutes at room temperature. Subsequently, the leaf disks were deposited at the bottom of glass tubes and a minimum of 20 adult whiteflies were introduced into the tubes. The repelling effect of anatabine at three different concentrations was measured at different time points: after 1 hour, 3 hours, 6 hours. the repelling effect of anatabine at different concentrations is shown in Table 4.
A concentration of 5 percent was chosen based on the results of Example 2. […] In the placebo control the leaves were treated with solvent only. The placebo control defines the baseline, against which the repelling effect is then calculated.
(§1) For the purpose of the study, leaf disks were dipped for a total time of 30 seconds into the prepared solutions and left dry for 10 minutes at room temperature. Subsequently, the leaf disks were deposited at the bottom of glass tubes and a minimum of 20 adult whiteflies were introduced into the tubes.

Data set [2] relates to adult whitefly. The experiment in a line: Tube test assay: repelling effect with whitefly introduced at later infestation time points (Example 4). In kind it is in vivo. The note with it: concentration 5 percent; for repelling effect: remaining 5 days (up to 123 hours) of the evaluation period. The protocol: The repelling effect of anatabine on adult whitefly was evaluated in a further comparative study which introduced additional whitefly and freshly treated leaves at set evaluation time points. For the purpose of the study, a tube test assay was performed using solutions of anatabine and DEET at a concentration of 5 percent together with a placebo solution, as shown in Table 10. The placebo control defines the baseline, against which the repelling effect is then calculated.
Whitefly were introduced into the tube at infestation time points: 48, 72 and 120 hours and the repelling effect was measured after 3 hours at evaluation time points: 51, 75 and 123 hours.

Data set [3] deals with whitefly. The experiment in a line: Whitefly mortality on treated leaves. Format: in vivo. The note with it: concentration 5 percent. Here is the method:
as §1
The study also assessed the whitefly mortality rate over the duration of the evaluation period. […]

The subject of data set [4] is whitefly. The experiment in a line: Presence of eggs on treated leaves, evaluated visually. Format: in vivo. The note with it: concentration 5 percent; evaluation period of up to 6 days (144 hours). Here is the method:
In addition, the presence and amount of eggs on the leaves after a period of 48 hours was evaluated visually and the results are shown in Table 7.
The presence of eggs was visually monitored 24 hours after each infestation time point.

A further data set has as its system leaves. The experiment in a line: Damage to leaves caused by treatment. Here is the method:
For the purpose of the study, leaf disks were dipped for a total time of 30 seconds into the prepared solutions and left to dry for 10 minutes at room temperature. Subsequently, the leaf disks were deposited at the bottom of glass tubes and a minimum of 20 adult whiteflies were introduced into the tubes.
as §1

Where [5] appears, read: concentration 1.0 percent, evaluation time 0 hour.
The mark [6] stands for this setting: concentration 1.0 percent, evaluation time 1 hour.
Where [7] appears, read: concentration 1.0 percent, evaluation time 3 hour.
Where [8] appears, read: concentration 5 percent, evaluation time 0 hour (Example 3).
The mark [9] stands for this setting: concentration 5 percent, evaluation time 6 hour (Example 3).
Where [10] appears, read: concentration 5 percent, evaluation time 24 hour (Example 3).
Setting [11] is: concentration 5 percent, evaluation time 48 hour (Example 3).
Setting [12] is: infestation time 48 hour, evaluation time 51 hour.
Setting [13] is: infestation time 72 hour, evaluation time 75 hour.
Setting [14] is: infestation time 120 hour, evaluation time 123 hour.

The structures appear in SMILES notation. Several values for one entry are separate records, joined by “and”; a condition that tells them apart may be missing. Equal values may be shown once.

For `CCN(CC)C(=O)c1cccc(C)c1` [DEET, N,N-Diethyl-meta-toluamide, reference compound], the “drop of the repelling effect” value in the data set on adult whitefly [1] (concentration 1.0 percent, after 6 hours) is roughly 40%. In addition, the “Mean Repellence” value in the data set with adult whitefly [1] (setting [5]) is recorded as 87.5%; with adult whitefly [1] (setting [6]) it was 90.0%; in the data set on adult whitefly [1] (setting [7]) it was 68.0%; in the data set on adult whitefly [1] (setting [8]) it was 100%; in the data set on adult whitefly [1] (setting [9]) it was 100%; in the data set with adult whitefly [1] (setting [10]) it was 94.9%. Further, the “Mean Repellence” value in the data set with adult whitefly [1] (setting [11]) is 93% and 93.4%; in the data set on adult whitefly [2] (setting [12]), 54.1%; in the data set on adult whitefly [2] (setting [13]), 55.9%; in the data set with adult whitefly [2] (setting [14]), 48.9%. In the data set on adult whitefly [2] (after the first 48 hours), this molecule showed a drop of efficacy of roughly 50%. The repelling effect result in the data set on adult whitefly [2] is reported as “below 50%”. Besides, the “Mean Mortality” value is on record as 0.0% with whitefly [3] (evaluation time 0 hour), 1.4% in the data set with whitefly [3] (evaluation time 6 hour), 50.0% in the data set on whitefly [3] (evaluation time 24 hour) and 80.3% in the data set on whitefly [3] (evaluation time 48 hour).
For the molecule `C1=CCC(c2cccnc2)NC1` (stereo not drawn) [Anatabine, anatabine], the “Mean Repellence” value with adult whitefly [1] (setting [5]) was 81.3%; in the data set with adult whitefly [1] (setting [6]), 90.0%; with adult whitefly [1] (setting [7]), 96.0%; in the data set with adult whitefly [1] (concentration 1.0 percent, evaluation time 6 hour), 88.9%; with adult whitefly [1] (concentration 2 percent, evaluation time 3 hour) it was 100%; with adult whitefly [1] (concentration 2 percent, evaluation time 6 hour), 100%. The “Mean Repellence” value turned out to be 100% with adult whitefly [1] (setting [8]); 100% with adult whitefly [1] (concentration 5 percent, evaluation time 3 hour (Example 2)); 100% with adult whitefly [1] (concentration 5 percent, evaluation time 6 hour (Example 2)); 100% in the data set with adult whitefly [1] (setting [9]); 100% in the data set on adult whitefly [1] (setting [10]); 100% in the data set with adult whitefly [1] (setting [11]). Further, the “Mean Repellence” value in the data set on adult whitefly [1] (concentration 10 percent, evaluation time 3 hour) came to 100%; in the data set with adult whitefly [1] (concentration 10 percent, evaluation time 6 hour), 100%; with adult whitefly [2] (setting [12]), 100%; in the data set with adult whitefly [2] (setting [13]), 85.3%; in the data set on adult whitefly [2] (setting [14]) it was 82.2%. Also, the repelling effect entry in the data set with adult whitefly [1] (concentration 1.0 percent, throughout the evaluation period of 6 hours) was “over 80%”; in the data set on adult whitefly [1] (concentration 5 percent, throughout the evaluation period of 48 hours), 100%; in the data set with adult whitefly [1] (regardless of the concentration (2, 5, 10 percent), 3 and 6 hours), 100%; in the data set on adult whitefly [2], “more than 80%”. In addition, the “number of eggs observed on the leaves” value in the data set on whitefly [4] was “remained low”. Further, the “Mean Mortality” value in the data set with whitefly [3] (evaluation time 0 hour) worked out at 0.0%; in the data set on whitefly [3] (evaluation time 6 hour) it was 7.6%; in the data set on whitefly [3] (evaluation time 24 hour) it was 41.3%; in the data set with whitefly [3] (evaluation time 48 hour), 84.6%. In addition, the Leaves damage entry in the data set with leaves (concentration 5 percent, evaluation time 48 hour) was “did not cause any damage”. Also, in the data set with leaves (concentrations of 5 percent or less (Example 2)), the damage to leaves entry was “not damaged”.
`COC(=O)c1ccccc1` [Methyl Benzoate, methyl benzoate, reference compound]: the “drop of the repelling effect” value in the data set on adult whitefly [1] (concentration 5 percent, by the end of the 48 hours evaluation period) is given as roughly 25%. Moreover, the “Mean Repellence” value with adult whitefly [1] (setting [8]) worked out at 100%; in the data set with adult whitefly [1] (setting [9]), 47.2%; in the data set with adult whitefly [1] (setting [10]), 76.8%; in the data set on adult whitefly [1] (setting [11]) it was 76.5%. Besides, the “Mean Mortality” value in the data set with whitefly [3] (evaluation time 0 hour) was 0.0%; with whitefly [3] (evaluation time 6 hour), 1.4%; with whitefly [3] (evaluation time 24 hour) it was 47.6%; in the data set on whitefly [3] (evaluation time 48 hour) it was 77.8%.

The values are drawn from US20250287948A1, “TOBACCO ALKALOID INSECT REPELLENT IN PLANTS” (Philip Morris Products S.A., priority 2022, published 2025).
